Laboratory results taken from publication PMC10222686, “Synthesis and Molecular Docking Studies of Alkoxy- and Imidazole-Substituted Xanthones as α-Amylase and α-Glucosidase Inhibitors” (Molecules, 2023).

Tests used:
[1] = DPPH radical scavenging assay; details: mean ± SD, n = 4
Protocol: The scavenging of free radicals by the synthesized compounds was assessed based on the previously reported DPPH radical assay, with slight modifications. The reaction mixture consisted of 50 µL of compound in DMSO at various concentrations (from 2.5 mM to 0.2 mM) and 150 µL of DPPH solution at 133.33 µM in absolute ethanol. The reaction components were added at a ratio of 1:3 (v/v). The mixture was incubated at 37 °C for 30 min before absorbance was read at 517 nm using a microplate reader (Epoch, BioTek®). Butylhydroxytoulene (BHT) served as the positive control. Scavenging capacity (%) is expressed as the percentage decrease in DPPH. SC% = [(Acontrol − Atest)/Acontrol] × 100 where Acontrol is absorbance of the DPPH solution (control) and Atest is the absorbance of the solution of DPPH and one of the compounds.

α-amylase = target: T1, α-amylase (Sus scrofa, UniProt P00690); assay: α-Amylase inhibition assay (starch/DNS); assay type: biochemical, porcine; details: mean ± SD, n = 4; for inhibition at 100 µM: NI = no inhibition; for IC50: compounds precipitate at 200 µM;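 as to all read-outs here: reducing sugar measured by DNS colour at 540 nm, inhibition relative to enzyme reaction lacking test compound, blank without enzyme subtracted for background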
T1 construct: purchased Sigma-Aldrich; host or cells: porcine pancreas
T1 sequence (P00690 16-511): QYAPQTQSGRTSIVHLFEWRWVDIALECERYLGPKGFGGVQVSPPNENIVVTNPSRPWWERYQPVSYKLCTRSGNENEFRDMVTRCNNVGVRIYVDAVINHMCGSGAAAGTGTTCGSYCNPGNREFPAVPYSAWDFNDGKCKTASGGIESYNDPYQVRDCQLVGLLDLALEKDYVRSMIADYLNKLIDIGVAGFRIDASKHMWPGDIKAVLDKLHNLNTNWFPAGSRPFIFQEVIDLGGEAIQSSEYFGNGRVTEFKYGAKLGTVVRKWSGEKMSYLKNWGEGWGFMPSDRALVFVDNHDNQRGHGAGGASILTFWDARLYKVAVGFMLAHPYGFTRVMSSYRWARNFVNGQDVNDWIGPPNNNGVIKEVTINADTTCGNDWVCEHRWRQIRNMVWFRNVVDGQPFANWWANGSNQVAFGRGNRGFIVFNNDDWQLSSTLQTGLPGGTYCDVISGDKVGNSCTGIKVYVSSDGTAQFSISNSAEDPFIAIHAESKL
Protocol: α-Amylase inhibitory activity was quantified according to the method developed by Chokki et al., with some modifications [65]. […] Finally, 100 µL of 3,5-dinitrosalicylic acid (DNS) was added and heated at 100 °C for 20 min, and absorbance was then read at 540 nm in a microplate reader (Epoch, BioTek®). The reaction system without any test compound was used as the control, and the system without α-amylase served as a blank for correcting background absorbance. The percentage of α-amylase inhibition was calculated for each sample with Equation (2):(2) % inhibition=Control absorbance−sample absorbance/Control absorbance×100
(§1) All measurements were performed in quadruplicate and the values are expressed as the mean ± standard deviation.

α-glucosidase = assay: α-Glucosidase inhibition assay (p-NPG substrate); assay type: biochemical, Saccharomyces cerevisiae; details: mean ± SD, n = 4
Protocol: The inhibitory activity of the compounds on α-glucosidase inhibition was quantified according to the method described by Salehi et al., with slight modifications [64]. A reaction was prepared by mixing 20 µL α-glucosidase solution (0.5 unit/mL), 120 µL 0.1 M phosphate buffer (pH 6.9), and 10 µL of the samples at concentrations from 400 µM to 4.0 µM. The solution was incubated in a 96-well microplate at 37 °C for 15 min. The enzymatic reaction was initiated by adding 20 µL of 5 mM p-NPG solution to 0.1 M phosphate buffer (pH 6.9), followed by incubation at 37 °C for 15 min. The reaction was stopped by adding 80 µL of 0.2 M sodium carbonate solution, and absorbance was read at 405 nm in a microplate reader (Epoch®, BioTek Instrument, Winooski, EUA). The reaction system without any test compounds was used as control, whereas the system without α-glucosidase served as blank for correcting background absorbance. The rate of α-glucosidase inhibition exerted by each sample was calculated with Equation (1):(1) % inhibition=Control absorbance−sample absorbance/Control absorbance×100
as §1

C=CCc1c(OCC(=O)c2ccc(Cl)cc2)c(OC)cc2oc3ccccc3c(=O)c12 [Compound 6e, 1-Allyl-2-(2-(4-chlorophenyl)-2-oxoethoxy)-3-methoxy-9H-xanthen-9-one]
% DPPH Scavenging Activity (2.5 mM) [1]: 10.4 ± 0.83 ^F,G % | inhibition at 100 µM (α-amylase): 60.3 ± 0.1% | IC50 (α-amylase): 68.1 ± 0.04 µM | α-Glucosidase Inhibition (%) at 400 µM (α-glucosidase): 98.6 ± 0.90% | IC50 (α-glucosidase): 12.8 ± 0.01 µM

COC(=O)/C(=C/N(C)C)Oc1cc2c(=O)c3ccccc3oc2cc1OC [Compound 5, Methyl (Z)-3-(dimethylamino)-2-((3-methoxy-9-oxo-9H-xanthen-2-yl)oxy)acrylate]
% DPPH Scavenging Activity (2.5 mM) [1]: 13.9 ± 1.14 ^E,F % | inhibition at 100 µM (α-amylase): < 0% | α-Glucosidase Inhibition (%) at 400 µM (α-glucosidase): 15.2 ± 0.16% | IC50 (α-glucosidase): > 400 µM

COc1cc2oc3ccccc3c(=O)c2cc1OCC(O)Cn1ccnc1-c1ccc(Cl)cc1 (stereo not shown) [Compound 12c, 2-(3-(2-(4-Chlorophenyl)-1H-imidazol-1-yl)-2-hydroxypropoxy)-3-methoxy-9H-xanthen-9-one]
% DPPH Scavenging Activity (2.5 mM) [1]: 19.0 ± 0.22 ^D % | inhibition at 100 µM (α-amylase): 3.9 ± 0.55% | IC50 (α-amylase): > 200 µM | melting point: 235 °C (dec.) | α-Glucosidase Inhibition (%) at 400 µM (α-glucosidase): 97.5 ± 1.78% | IC50 (α-glucosidase): 210.9 ± 0.33 µM

C=CCc1c(OCC(O)Cn2ccnc2)c(OC)cc2oc3ccccc3c(=O)c12 (stereo not shown) [Compound 12d, 1-Allyl-2-(2-hydroxy-3-(1H-imidazol-1-yl)propoxy)-3-methoxy-9H-xanthen-9-one]
% DPPH Scavenging Activity (2.5 mM) [1]: 10.1 ± 0.87 ^G % | inhibition at 100 µM (α-amylase): 1.5 ± 0.1% | IC50 (α-amylase): > 200 µM | melting point: 187 to 189 °C | α-Glucosidase Inhibition (%) at 400 µM (α-glucosidase): 52.2 ± 0.87% | IC50 (α-glucosidase): 400.2 ± 0.24 µM

C[C@H]1O[C@H](O[C@H]2[C@H](O)[C@@H](O)[C@@H](O[C@H]3[C@H](O)[C@@H](O)C(O)O[C@@H]3CO)O[C@@H]2CO)[C@H](O)[C@@H](O)[C@@H]1N[C@H]1C=C(CO)[C@@H](O)[C@H](O)[C@H]1O (stereo partly shown) [Acarbose, acarbose, reference compound]
inhibition at 100 µM (α-amylase): 99.3 ± 0.06% | α-Glucosidase Inhibition (%) at 400 µM (α-glucosidase): 63.18 ± 0.7%

COc1cc2oc3ccccc3c(=O)c2cc1OCC(O)Cn1ccnc1-c1ccccc1 (stereo not shown) [Compound 12b, 2-(2-Hydroxy-3-(2-phenyl-1H-imidazol-1-yl)propoxy)-3-methoxy-9H-xanthen-9-one]
% DPPH Scavenging Activity (2.5 mM) [1]: 16.3 ± 1.45 ^D,E % | inhibition at 100 µM (α-amylase): 8.7 ± 0.81% | IC50 (α-amylase): > 200 µM | melting point: 157 to 159 °C | α-Glucosidase Inhibition (%) at 400 µM (α-glucosidase): 84.9 ± 0.57% | IC50 (α-glucosidase): 112.8 ± 0.12 µM

Cc1cc(C(C)(C)C)c(O)c(C(C)(C)C)c1 [BHT, butylhydroxytoluene, reference compound]
% DPPH Scavenging Activity (2.5 mM) [1]: 85.2 ± 3.33 ^A‡ %

C=CCc1c(OCCCCn2ccnc2-c2ccc(Cl)cc2)c(OC)cc2oc3ccccc3c(=O)c12 [Compound 10f, 1-Allyl-2-(4-(2-(4-chlorophenyl)-1H-imidazol-1-yl)butoxy)-3-methoxy-9H-xanthen-9-one]
% DPPH Scavenging Activity (2.5 mM) [1]: 11.2 ± 1.02 ^F,G % | inhibition at 100 µM (α-amylase): 93.3 ± 0.12% | IC50 (α-amylase): 8.7 ± 0.06 µM | melting point: 90 to 92 °C | α-Glucosidase Inhibition (%) at 400 µM (α-glucosidase): 99.4 ± 0.51% | IC50 (α-glucosidase): 145.2 ± 0.17 µM

COc1cc2oc3ccccc3c(=O)c2c2c1OC(C)(C)C=C2 [Compound 8, 5-Methoxy-3,3-dimethylpyrano[3,2-a]xanthen-12(3H)-one]
% DPPH Scavenging Activity (2.5 mM) [1]: 1.9 ± 0.73 ^H,I % | inhibition at 100 µM (α-amylase): < 0% | α-Glucosidase Inhibition (%) at 400 µM (α-glucosidase): 38.3 ± 0.04% | IC50 (α-glucosidase): > 400 µM

C=CCc1c(OCCCCn2ccnc2)c(OC)cc2oc3ccccc3c(=O)c12 [Compound 10d, 2-(4-(1H-Imidazol-1-yl)butoxy)-1-allyl-3-methoxy-9H-xanthen-9-one]
% DPPH Scavenging Activity (2.5 mM) [1]: 5.1 ± 0.08 ^H % | inhibition at 100 µM (α-amylase): < 0% | α-Glucosidase Inhibition (%) at 400 µM (α-glucosidase): 2.5 ± 0.01% | IC50 (α-glucosidase): > 400 µM

C=CCc1c(OCC(O)Cn2ccnc2-c2ccc(Cl)cc2)c(OC)cc2oc3ccccc3c(=O)c12 (stereo not shown) [Compound 12f, 1-Allyl-2-(3-(2-(4-chlorophenyl)-1H-imidazol-1-yl)-2-hydroxypropoxy)-3-methoxy-9H-xanthen-9-one]
% DPPH Scavenging Activity (2.5 mM) [1]: 18.1 ± 1.57 ^D % | inhibition at 100 µM (α-amylase): 4.7 ± 0.32% | IC50 (α-amylase): > 200 µM | melting point: 116 to 118 °C | α-Glucosidase Inhibition (%) at 400 µM (α-glucosidase): 99.1 ± 1.31% | IC50 (α-glucosidase): 71.9 ± 0.08 µM

C=CCc1c(OCC(O)Cn2ccnc2-c2ccccc2)c(OC)cc2oc3ccccc3c(=O)c12 (stereo not shown) [Compound 12e, 1-Allyl-2-(2-hydroxy-3-(2-phenyl-1H-imidazol-1-yl)propoxy)-3-methoxy-9H-xanthen-9-one]
% DPPH Scavenging Activity (2.5 mM) [1]: 17.6 ± 1.14 ^D % | inhibition at 100 µM (α-amylase): 2.4 ± 0.15% | IC50 (α-amylase): > 200 µM | melting point: 187 to 189 °C | α-Glucosidase Inhibition (%) at 400 µM (α-glucosidase): 96.6 ± 1.45% | IC50 (α-glucosidase): 104.9 ± 0.01 µM

COc1cc2oc3ccccc3c(=O)c2cc1OCC1CO1 (stereo not shown) [Compound 11a, 3-Methoxy-2-(oxiran-2-ylmethoxy)-9H-xanthen-9-one]
% DPPH Scavenging Activity (2.5 mM) [1]: 19.8 ± 1.04 ^D % | inhibition at 100 µM (α-amylase): < 0% | melting point: 143 to 144 °C | α-Glucosidase Inhibition (%) at 400 µM (α-glucosidase): 0.48 ± 0.02% | IC50 (α-glucosidase): > 400 µM

C=CCc1c(OCC2CO2)c(OC)cc2oc3ccccc3c(=O)c12 (stereo not shown) [Compound 11b, 1-Allyl-3-methoxy-2-(oxiran-2-ylmethoxy)-9H-xanthen-9-one]
% DPPH Scavenging Activity (2.5 mM) [1]: 18.4 ± 1.43 ^D % | inhibition at 100 µM (α-amylase): 7.8 ± 0.5% | IC50 (α-amylase): > 200 µM | melting point: 115 to 116 °C | α-Glucosidase Inhibition (%) at 400 µM (α-glucosidase): 99.7 ± 0.29% | IC50 (α-glucosidase): 120 ± 0.03 µM

C=CCc1c(O)c(OC)cc2oc3ccccc3c(=O)c12 [Compound 7, 1-Allyl-2-hydroxy-3-methoxy-9H-xanthen-9-one]
% DPPH Scavenging Activity (2.5 mM) [1]: 45.9 ± 2.89 ^B† % | inhibition at 100 µM (α-amylase): 7.8 ± 0.1% | IC50 (α-amylase): > 200 µM | α-Glucosidase Inhibition (%) at 400 µM (α-glucosidase): 75.5 ± 0.50% | IC50 (α-glucosidase): 196.4 ± 0.07 µM

COC(=O)COc1cc2c(=O)c3ccccc3oc2cc1OC [Compound 6a, Methyl 2-((3-methoxy-9-oxo-9H-xanthen-2-yl)oxy)acetate]
% DPPH Scavenging Activity (2.5 mM) [1]: 1.7 ± 0.91 ^H,I % | inhibition at 100 µM (α-amylase): 8.7 ± 0.2% | IC50 (α-amylase): > 200 µM | melting point: 139 to 140 °C | α-Glucosidase Inhibition (%) at 400 µM (α-glucosidase): 99.5 ± 0.2% | IC50 (α-glucosidase): 143.6 ± 0.17 µM

COc1cc2oc3ccccc3c(=O)c2cc1O [Compound 1, 2-Hydroxy-3-methoxy-9H-xanthen-9-one]
inhibition at 100 µM (α-amylase): 98.7 ± 0.11% | IC50 (α-amylase): 26.5 ± 0.01 µM | α-Glucosidase Inhibition (%) at 400 µM (α-glucosidase): 26.5 ± 0.81% | IC50 (α-glucosidase): > 400 µM

COc1cc2oc3ccccc3c(=O)c2cc1OCC(O)Cn1ccnc1 (stereo not shown) [Compound 12a, 2-(2-Hydroxy-3-(1H-imidazol-1-yl)propoxy)-3-methoxy-9H-xanthen-9-one]
% DPPH Scavenging Activity (2.5 mM) [1]: 1.1 ± 0.01 ^I % | inhibition at 100 µM (α-amylase): < 0% | melting point: 146 to 148 °C | α-Glucosidase Inhibition (%) at 400 µM (α-glucosidase): 1.87 ± 0.47% | IC50 (α-glucosidase): > 400 µM

COc1cc2oc3ccccc3c(=O)c2cc1OCCCCn1ccnc1-c1ccccc1 [Compound 10b, 3-Methoxy-2-(4-(2-phenyl-1H-imidazol-1-yl)butoxy)-9H-xanthen-9-one]
% DPPH Scavenging Activity (2.5 mM) [1]: 12.2 ± 0.08 ^F,G % | inhibition at 100 µM (α-amylase): 9.7 ± 0.21% | IC50 (α-amylase): > 200 µM | melting point: 132 to 134 °C | α-Glucosidase Inhibition (%) at 400 µM (α-glucosidase): 90.2 ± 0.21% | IC50 (α-glucosidase): 212.4 ± 0.1 µM

C=CCOc1cc2c(=O)c3ccccc3oc2cc1OC [Compound 6d, 2-(Allyloxy)-3-methoxy-9H-xanthen-9-one]
% DPPH Scavenging Activity (2.5 mM) [1]: 3.9 ± 0.58 ^H,I % | inhibition at 100 µM (α-amylase): < 0% | melting point: 150 to 151 °C | α-Glucosidase Inhibition (%) at 400 µM (α-glucosidase): 22.1 ± 1.04% | IC50 (α-glucosidase): > 400 µM

COc1cc2oc3ccccc3c(=O)c2cc1OCCCCBr [Compound 9a, 2-(4-Bromobutoxy)-3-methoxy-9H-xanthen-9-one]
% DPPH Scavenging Activity (2.5 mM) [1]: 19.5 ± 1.22 ^D % | inhibition at 100 µM (α-amylase): 62.9 ± 0.2% | IC50 (α-amylase): 73.5 ± 0.04 µM | α-Glucosidase Inhibition (%) at 400 µM (α-glucosidase): 97.8 ± 0.3% | IC50 (α-glucosidase): 40 ± 0.018 µM

COc1cc2oc3ccccc3c(=O)c2cc1OCCCCn1ccnc1 [Compound 10a, 2-(4-(1H-imidazol-1-yl)butoxy)-3-methoxy-9H-xanthen-9-one]
% DPPH Scavenging Activity (2.5 mM) [1]: 0.8 ± 0.01 ^I % | inhibition at 100 µM (α-amylase): < 0% | melting point: 137 to 138 °C | α-Glucosidase Inhibition (%) at 400 µM (α-glucosidase): 1.3 ± 0.01% | IC50 (α-glucosidase): > 400 µM

COc1cc2oc3ccccc3c(=O)c2cc1OCC(C)=O [Compound 6b, 3-Methoxy-2-(2-oxopropoxy)-9H-xanthen-9-one]
% DPPH Scavenging Activity (2.5 mM) [1]: 11.8 ± 1.07 ^F,G % | melting point: 144 to 145 °C | α-Glucosidase Inhibition (%) at 400 µM (α-glucosidase): 9.3 ± 0.1% | IC50 (α-glucosidase): > 400 µM
